Experimental data taken from ChEMBL document CHEMBL5053469, “Heterocyclic GTP Cyclohydrolase 1 Inhibitors For the Treatment of Pain” (2012).

Legend:
[1] = Inhibition of rat aortic smooth muscle cell GCH1 expressed in Escherichia coli assessed as reduction in 7,8-dihydroneoptrein 3'-triphosphate formation using GTP as substrate incubated for 1 hr by LC/MS assay
[2] = Inhibition of recombinant rat GCH1 assessed as reduction in 7,8-dihydroneoptrein 3'-triphosphate formation using GTP as substrate incubated for 15 mins by HPLC and fluorescence detection assay

IC50 [1] | IC50 [2] | Structure (SMILES)
127 µM | – | Nc1nc(O)c2nc(SCC(=O)Nc3ccc(S(=O)(=O)N4CCCCCC4)cc3)[nH]c2n1
– | 24 µM | Nc1nc2[nH]c(S)nc2c(=O)[nH]1
89 µM | – | CC1CCCCC1NC(=O)CSc1nc2c(O)nc(N)nc2[nH]1 (stereo not drawn)
